Test results reported in ChEMBL document CHEMBL1201862, “PubChem BioAssay data set” (2004).
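The compound was tested at five concentrations on cells cultured in 96-well plates, with a 48-hour exposure period. Abbreviation: GI50, concentration required for 50% inhibition of growth.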 Calls of active or inactive are those of the source. No stated cut-off is given here; in the data, active = GI50 up to about 1.1 µM and inactive = higher.

Experiments:
Experiment in all cases: DTP human tumour cell line panel, 48 h
[1] = tested on: ACHN
[2] = tested on: EKVX
[3] = tested on: HCT-116
[4] = tested on: HOP-62
[5] = tested on: IGROV-1
[6] = tested on: KM12
[7] = tested on: M14
[8] = tested on: Malme-3M
[9] = tested on: NCI-H460
[10] = tested on: OVCAR-5
[11] = tested on: OVCAR-8
[12] = tested on: SF-268
[13] = tested on: SF-295
[14] = tested on: SK-OV-3
[15] = tested on: SNB-19
[16] = tested on: SR
[17] = tested on: TK-10
[18] = tested on: UACC-257
[19] = tested on: UACC-62
[20] = tested on: UO-31

Row | SMILES | GI50 [1] | GI50 [2] | GI50 [3] | GI50 [4] | GI50 [5] | GI50 [6] | GI50 [7] | GI50 [8] | GI50 [9] | GI50 [10] | GI50 [11] | GI50 [12] | GI50 [13] | GI50 [14] | GI50 [15] | GI50 [16] | GI50 [17] | GI50 [18] | GI50 [19] | GI50 [20]
1 | COC(=O)Nc1nc(=O)c2cc(OC)c(OC)cc2[nH]1 | > 100 µM (inactive) | > 100 µM (inactive) | 5.2 µM (inactive) | 44.6 µM (inactive) | 15.2 µM (inactive) | 5.31 µM (inactive) | > 100 µM (inactive) | 5.31 µM (inactive) | 9.33 µM (inactive) | > 100 µM (inactive) | 47.6 µM (inactive) | > 100 µM (inactive) | 4.66 µM (inactive) | 42.1 µM (inactive) | 36.4 µM (inactive) | > 100 µM (inactive) | > 100 µM (inactive) | > 100 µM (inactive) | 6.56 µM (inactive) | 49.4 µM (inactive)
2 | Cc1cccc(Nc2nc3ccccc3nc2NS(=O)(=O)c2ccc(N)cc2)c1 | 32.2 µM (inactive) | 54.3 µM (inactive) | 33.1 µM (inactive) | 25.7 µM (inactive) | 33 µM (inactive) | 26.7 µM (inactive) | 37.8 µM (inactive) | 78.7 µM (inactive) | 32.5 µM (inactive) | > 100 µM (inactive) | 39.6 µM (inactive) | 63.7 µM (inactive) | 34.8 µM (inactive) | 54.8 µM (inactive) | 31.3 µM (inactive) | 19.8 µM (inactive) | 32.5 µM (inactive) | 41.4 µM (inactive) | 38.4 µM (inactive) | 16.2 µM (inactive)
3 | COC(=O)C(=O)C(C(=O)C(=O)Nc1ccc([N+](=O)[O-])cc1[N+](=O)[O-])c1nc2ccc([N+](=O)[O-])cc2nc1O (centres undefined) | > 100 µM (inactive) | 38.2 µM (inactive) | > 100 µM (inactive) | > 100 µM (inactive) | > 100 µM (inactive) | > 100 µM (inactive) | > 100 µM (inactive) | > 100 µM (inactive) | > 100 µM (inactive) | > 100 µM (inactive) | > 100 µM (inactive) | > 100 µM (inactive) | > 100 µM (inactive) | > 100 µM (inactive) | > 100 µM (inactive) | 43 µM (inactive) | > 100 µM (inactive) | > 100 µM (inactive) | > 100 µM (inactive) | 53 µM (inactive)
4 | C/C(=N/NC(=S)Nc1ccccc1C)c1ccccn1 | 0.0562 µM (active) | 0.167 µM (active) | < 0.0152 µM (active) | 0.0299 µM (active) | < 0.0182 µM (active) | 0.173 µM (active) | < 0.0258 µM (active) | 1.6 µM (inactive) | 0.0818 µM (active) | 0.0843 µM (active) | 0.107 µM (active) | 0.14 µM (active) | 0.175 µM (active) | 0.052 µM (active) | 2.43 µM (inactive) | 0.0229 µM (active) | 0.259 µM (active) | < 0.0208 µM (active) | 0.232 µM (active) | 0.43 µM (active)
5 | COc1ccc(N2C(=O)C3c4[nH]c5ccccc5c4C4CCCCCCCC4C3C2=O)cc1 (centres undefined) | > 10 µM (inactive) | > 10 µM (inactive) | 1.7 µM (inactive) | > 10 µM (inactive) | > 10 µM (inactive) | > 10 µM (inactive) | > 10 µM (inactive) | > 10 µM (inactive) | > 10 µM (inactive) | > 10 µM (inactive) | > 10 µM (inactive) | > 10 µM (inactive) | > 10 µM (inactive) | > 10 µM (inactive) | > 10 µM (inactive) | > 10 µM (inactive) | > 10 µM (inactive) |  | > 10 µM (inactive) | > 10 µM (inactive)
6 | CN(C)/C=N/S(=O)(=O)c1nn2c(C=O)c(-c3ccc([N+](=O)[O-])cc3)nc2s1 | 2.03 µM (inactive) | 16.6 µM (inactive) | 1.67 µM (inactive) | 26.1 µM (inactive) | 3.15 µM (inactive) | 9.12 µM (inactive) | 2.79 µM (inactive) | 2.23 µM (inactive) | 13.6 µM (inactive) | 23.4 µM (inactive) | 3.67 µM (inactive) | 13.6 µM (inactive) | 35.1 µM (inactive) | 53.7 µM (inactive) | 28.6 µM (inactive) | 2.06 µM (inactive) | 5.73 µM (inactive) | 9.44 µM (inactive) | 4.91 µM (inactive) | 2.61 µM (inactive)
7 | COc1ccc2c(c1)CCCN2S(=O)(=O)c1ccccc1[N+](=O)[O-] | 41.1 µM (inactive) | 56 µM (inactive) | 24.2 µM (inactive) | 47.5 µM (inactive) | 34.3 µM (inactive) | 10.7 µM (inactive) | 40.8 µM (inactive) | 40.8 µM (inactive) | 26 µM (inactive) | 84.3 µM (inactive) | 53.7 µM (inactive) | 49.5 µM (inactive) | 30.5 µM (inactive) | 24 µM (inactive) | > 73.3 µM (inactive) | 11.1 µM (inactive) | 54.8 µM (inactive) | 71.9 µM (inactive) | 47.8 µM (inactive) | 43 µM (inactive)
